According to ChEMBL document CHEMBL3526141, “Characterization of human liver enzymes involved in the biotransformation of boceprevir, a hepatitis C virus protease inhibitor” (Drug Metab Dispos, 2011):

Key:
Plasma = assay: Drug metabolism in human plasma treated with [14C]boceprevir assessed as ratio of drug level by LC-MS/MS method relative to boceprevir; format: ADME, cell-free
Cytochrome P450 3A4 = Cytochrome P450 3A4 (Homo sapiens, UniProt P08684); assay: Drug metabolism assessed as human CYP3A4-mediated compound formation from 20 uM [14C]boceprevir after 120 mins by LC-MS/FSA method relative to total [14C]boceprevir; format: ADME; conditions: recombinant enzyme, 2 h
Sequence of Cytochrome P450 3A4 (P08684 whole entry): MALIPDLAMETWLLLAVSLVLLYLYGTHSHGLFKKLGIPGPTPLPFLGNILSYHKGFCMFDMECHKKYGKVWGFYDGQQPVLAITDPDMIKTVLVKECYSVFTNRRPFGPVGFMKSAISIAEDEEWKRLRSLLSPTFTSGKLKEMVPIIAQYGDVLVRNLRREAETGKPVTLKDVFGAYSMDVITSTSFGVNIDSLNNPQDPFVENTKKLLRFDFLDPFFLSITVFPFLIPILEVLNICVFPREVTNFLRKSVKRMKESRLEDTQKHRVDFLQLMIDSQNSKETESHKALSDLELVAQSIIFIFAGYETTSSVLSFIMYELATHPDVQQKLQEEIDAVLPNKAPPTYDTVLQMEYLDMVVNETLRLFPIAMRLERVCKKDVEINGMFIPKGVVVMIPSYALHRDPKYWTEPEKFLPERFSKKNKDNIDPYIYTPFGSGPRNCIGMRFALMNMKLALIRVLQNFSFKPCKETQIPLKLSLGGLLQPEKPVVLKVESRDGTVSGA

Cytochrome P450 2D6 = Cytochrome P450 2D6 (Homo sapiens, UniProt P10635); assay: Drug metabolism assessed as human CYP2D6-mediated compound formation from 5 uM [14C]boceprevir after 120 mins by LC-MS/FSA method relative to total [14C]boceprevir; format: ADME; conditions: recombinant enzyme, 2 h
Sequence of Cytochrome P450 2D6 (P10635 whole entry): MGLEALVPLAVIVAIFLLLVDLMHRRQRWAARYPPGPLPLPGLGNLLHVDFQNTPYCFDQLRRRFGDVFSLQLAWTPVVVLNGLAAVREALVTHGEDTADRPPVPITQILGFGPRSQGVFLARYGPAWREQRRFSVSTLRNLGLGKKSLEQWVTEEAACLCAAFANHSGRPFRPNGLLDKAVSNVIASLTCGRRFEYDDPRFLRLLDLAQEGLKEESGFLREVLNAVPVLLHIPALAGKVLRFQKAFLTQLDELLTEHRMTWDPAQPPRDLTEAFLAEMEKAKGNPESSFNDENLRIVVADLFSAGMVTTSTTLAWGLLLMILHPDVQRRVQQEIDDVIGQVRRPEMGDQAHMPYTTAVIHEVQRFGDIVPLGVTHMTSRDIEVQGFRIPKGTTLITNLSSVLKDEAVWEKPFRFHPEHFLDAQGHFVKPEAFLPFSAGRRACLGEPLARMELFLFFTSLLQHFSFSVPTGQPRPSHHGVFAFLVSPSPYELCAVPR

Cytochrome P450 1A1 = target: T1, Cytochrome P450 1A1 (Homo sapiens, UniProt P04798); assay: (§1) Drug metabolism assessed as human […]-mediated compound formation from 5 uM [14C]boceprevir after 120 mins by LC-MS/FSA method relative to total [14C]boceprevir; format: ADME; conditions: recombinant enzyme, 2 h
T1 sequence (P04798 whole entry): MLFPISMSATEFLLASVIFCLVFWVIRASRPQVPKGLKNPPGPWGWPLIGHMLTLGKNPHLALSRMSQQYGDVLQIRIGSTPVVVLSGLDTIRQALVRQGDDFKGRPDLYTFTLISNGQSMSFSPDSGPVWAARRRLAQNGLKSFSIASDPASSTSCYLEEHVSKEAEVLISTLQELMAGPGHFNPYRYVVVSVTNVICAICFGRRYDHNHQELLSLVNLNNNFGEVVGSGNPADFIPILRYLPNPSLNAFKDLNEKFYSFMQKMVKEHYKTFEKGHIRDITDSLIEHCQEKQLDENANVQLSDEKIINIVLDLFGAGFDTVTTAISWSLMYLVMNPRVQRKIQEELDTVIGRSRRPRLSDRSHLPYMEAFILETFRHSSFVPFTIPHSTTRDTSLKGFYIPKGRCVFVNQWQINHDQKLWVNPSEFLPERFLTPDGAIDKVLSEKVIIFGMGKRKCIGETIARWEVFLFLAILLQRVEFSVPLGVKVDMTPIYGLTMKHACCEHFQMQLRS

Cytochrome P450 1A2 = target: T2, Cytochrome P450 1A2 (Homo sapiens, UniProt P05177); assay: as §1; format: ADME; conditions: recombinant enzyme, 2 h
T2 sequence (P05177 whole entry): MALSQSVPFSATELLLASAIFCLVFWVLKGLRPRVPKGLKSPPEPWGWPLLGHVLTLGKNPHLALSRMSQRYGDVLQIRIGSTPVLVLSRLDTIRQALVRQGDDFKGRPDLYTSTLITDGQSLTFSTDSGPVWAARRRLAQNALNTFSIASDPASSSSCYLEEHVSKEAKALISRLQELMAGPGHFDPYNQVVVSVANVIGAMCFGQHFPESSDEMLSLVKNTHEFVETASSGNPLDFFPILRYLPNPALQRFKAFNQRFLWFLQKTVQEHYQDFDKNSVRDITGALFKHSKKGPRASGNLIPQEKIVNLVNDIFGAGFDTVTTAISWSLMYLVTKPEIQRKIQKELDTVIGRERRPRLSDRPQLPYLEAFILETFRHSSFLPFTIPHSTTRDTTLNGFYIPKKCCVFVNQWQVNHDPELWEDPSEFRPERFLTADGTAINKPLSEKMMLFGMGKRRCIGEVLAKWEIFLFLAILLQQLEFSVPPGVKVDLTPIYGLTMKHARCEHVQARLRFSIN

Liver cytosol [1] = assay: Drug metabolism in human liver cytosol treated with 20 uM [14C]boceprevir assessed as IC50 for AKR inhibitor diflunisal-mediated metabolite formation after 60 mins by LC-MS/MS/FSA method; format: ADME, tissue-based; conditions: 1 h
Liver cytosol [2] = assay: Drug metabolism in human liver cytosol treated with 20 uM [14C]boceprevir assessed as IC50 for AKR inhibitor ibuprofen-mediated metabolite formation after 60 mins by LC-MS/MS/FSA method; format: ADME, tissue-based; conditions: 1 h
Cytochrome P450 2B6 = target: T3, Cytochrome P450 2B6 (Homo sapiens, UniProt P20813); assay: Drug metabolism assessed as human CYP2B6-mediated compound formation from 5 uM [14C]boceprevir after 120 mins by LC-MS/FSA method relative to total [14C]boceprevir; format: ADME; conditions: recombinant enzyme, 2 h
T3 sequence (P20813 whole entry): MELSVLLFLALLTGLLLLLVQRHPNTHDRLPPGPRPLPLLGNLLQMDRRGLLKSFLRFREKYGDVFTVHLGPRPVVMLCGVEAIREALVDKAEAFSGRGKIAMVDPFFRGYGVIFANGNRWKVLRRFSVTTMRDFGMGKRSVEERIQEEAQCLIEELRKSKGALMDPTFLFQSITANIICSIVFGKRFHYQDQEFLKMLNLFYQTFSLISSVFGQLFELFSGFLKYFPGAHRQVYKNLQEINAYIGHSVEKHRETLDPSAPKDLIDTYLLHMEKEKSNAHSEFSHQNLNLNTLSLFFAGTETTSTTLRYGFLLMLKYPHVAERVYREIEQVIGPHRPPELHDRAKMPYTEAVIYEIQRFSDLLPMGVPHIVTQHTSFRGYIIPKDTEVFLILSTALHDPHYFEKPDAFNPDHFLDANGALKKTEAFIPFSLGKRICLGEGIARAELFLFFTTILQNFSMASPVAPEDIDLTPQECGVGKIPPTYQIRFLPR

Cytochrome P450 4F3 = target: T4, Cytochrome P450 4F3 (Homo sapiens, UniProt Q08477); assay: Drug metabolism assessed as human CYP4F3A-mediated compound formation from 5 uM [14C]boceprevir after 120 mins by LC-MS/FSA method relative to total [14C]boceprevir; format: ADME; conditions: recombinant enzyme, 2 h
T4 sequence (Q08477 whole entry): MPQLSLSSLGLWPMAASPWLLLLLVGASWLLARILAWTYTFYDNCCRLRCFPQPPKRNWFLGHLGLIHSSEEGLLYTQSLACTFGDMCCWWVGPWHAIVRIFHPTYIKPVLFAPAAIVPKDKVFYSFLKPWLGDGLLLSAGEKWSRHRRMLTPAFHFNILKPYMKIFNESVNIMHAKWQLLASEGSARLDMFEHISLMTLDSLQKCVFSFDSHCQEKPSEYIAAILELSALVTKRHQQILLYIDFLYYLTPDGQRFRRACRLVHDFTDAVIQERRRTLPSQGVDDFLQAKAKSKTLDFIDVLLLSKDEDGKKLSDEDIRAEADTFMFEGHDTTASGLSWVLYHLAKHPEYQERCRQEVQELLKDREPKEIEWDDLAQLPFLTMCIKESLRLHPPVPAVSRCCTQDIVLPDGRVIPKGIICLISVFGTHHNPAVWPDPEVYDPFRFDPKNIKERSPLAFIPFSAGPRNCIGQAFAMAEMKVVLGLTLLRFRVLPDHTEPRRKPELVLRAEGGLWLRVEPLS

Liver cytosol [3] = assay: Drug metabolism in human liver cytosol at 20 uM assessed as (1R,2S,5S)-N-((2R,3R)-4-amino-1-cyclobutyl-3-hydroxy-4-oxobutan-2-yl)-3-((S)-2-(3-tert-butylureido)-3,3-dimethylbutanoyl)-6,6-dimethyl-3-azabicyclo[3.1.0]hexane-2-carboxamide formation in presence of BNPP by LC-MS/MS/FSA method; format: ADME
Liver cytosol [4] = assay: Drug metabolism in human liver cytosol at 20 uM assessed as (1R,2S,5S)-N-((2S,3R)-4-amino-1-cyclobutyl-3-hydroxy-4-oxobutan-2-yl)-3-((S)-2-(3-tert-butylureido)-3,3-dimethylbutanoyl)-6,6-dimethyl-3-azabicyclo[3.1.0]hexane-2-carboxamide formation in presence of BNPP by LC-MS/MS/FSA method; format: ADME

SMILES	Compound recovery (Plasma)	Compound recovery (Cytochrome P450 3A4; BLD = below limit of detection)	Compound recovery (Cytochrome P450 2D6) [%]	Compound recovery (Cytochrome P450 1A1) [%]	Compound recovery (Cytochrome P450 1A2) [%]	IC50 (Liver cytosol [1]) [µM]	IC50 (Liver cytosol [2]) [µM]	Compound recovery (Cytochrome P450 2B6) [%]	Compound recovery (Cytochrome P450 4F3) [%]	Compound recovery (Liver cytosol [3])	Compound recovery (Liver cytosol [4])	Compound recovery (Cytochrome P450 3A4) [%]
CC(C)(C)NC(=O)N[C@H](C(=O)N1C[C@H]2[C@@H]([C@H]1C(=O)N[C@@H](CC1CCC1)[C@@H](O)C(N)=O)C2(C)C)C(C)(C)C	>= 50%	BLD	0.56	0.57	0.34	4.58	412	0.9	1.78	–	–	–
CC(C)(C)NC(=O)N[C@H](C(=O)N1C[C@H]2[C@@H]([C@H]1C(=O)NC(CC1CCC1)C(=O)C(N)=O)C2(C)C)C(C)(C)C (some centres not stated) [BOCEPREVIR]	–	–	–	–	–	4.58	412	–	–	metabolite_not_detected	metabolite_not_detected	–
CC(C)(C)NC(=O)N[C@H](C(=O)N1C[C@H]2[C@@H]([C@H]1C(=O)N[C@H](CC1CCC1)C(=O)C(N)=O)C2(C)C)C(C)(C)C	>= 50%	–	31.66	33.4	31.72	–	–	33.77	34.35	metabolite_not_detected	metabolite_not_detected	18.98
